Values of other authors in patent US7812020B2, “Substituted pyridine derivatives” (priority 2005, dated 2010).

How the values were obtained:
rat [1] = settings: following kainic acid-induced status epilepticus in the rat
[2] = tested on: animal models of neuropathic pain; settings: in vivo
rats and mice = settings: oral and intraperitoneal administration; electrically induced seizures, pentylenetetrazole, picrotoxin, NMDA, DBA/2 mouse
amygdala kindling model = settings: complex partial seizures
rat [3] = tested on: rat
[4] = tested on: K(+) current in neuronal cells
[5] = tested on: animal models of anxiety-like behaviour; settings: in vivo
epileptic patients = settings: clinical trials

CCOC(=O)Nc1ccc(NCc2ccc(F)cc2)cc1N [Retigabine, N-(2-amino-4-(4-fluorobenzylamino)-phenyl)carbamic acid ethyl ester]
limbic neurodegeneration and markers of apoptosis (rat [1]): prevent limbic neurodegeneration and the expression of markers of apoptosis
effect in neuropathic pain models [2]: beneficial
anticonvulsant activity (rats and mice): active
activity in amygdala kindling model (amygdala kindling model): active
progression of hippocampal kindling (rat [3]): delay the progression of hippocampal kindling
effect on K(+) current [4]: activate a K(+) current
activity in anxiety-like behaviour models [5]: active
incidence of seizures (epileptic patients): effectiveness in reducing the incidence of seizures
